The source of these data is US20240277829A1, “HIV-1 VACCINATION AND SAMT-247 MICROBICIDE TO PREVENT HIV-1 INFECTION” (priority 2021, published 2024).

For one assay, the system named is CD14^+ cells. As to the kind of experiment: Efferocytosis assay using SAMT-247 and gp120 pooled peptides. Type of assay: cell-based, macaque. As to the method:
Efferocytosis assay. The frequency of efferocytotic CD14^+ cells was assessed by Efferocytosis Assay kit (#601770, Cayman Chemical company, Ann Arbor, MI, USA). CD14^+ cells were used as effector cells, whereas apoptotic neutrophils were used as target cells. The protocol was readapted in order to use CD14^+ monocyte cells rather than differentiated macrophages due to the low cell availability. CD14^+ cells were isolated from cryopreserved PBMCs (10×10^6 cells) collected following pre-study and 2 weeks post last immunization (week 14) or 5 weeks post last immunization (week 17) by using non-human primate CD14 microbeads (#130-091-097, Miltenyi Biotec Inc.) and following manufacturer instructions. At the end of the separation cells were counted and stained with CYTOTELL™ Blue provided by the kit and following manufacturer instructions. One unrelated macaque was used as source of neutrophils as target cells. Neutrophils were isolated as previously described (Khandpur, R., et al., Sci Transl Med 5, 178ra140 (2013)). Briefly, following isolation of PBMCs by Ficoll Plaque (GE Healthcare), the cellular pellet was added to an equal volume of 20% dextran in water, gently mixed, and incubated for 1 min. Approximately three volumes of PBS were added, mixed again and incubated in the dark for 50-60 minutes. At the end of incubation, the clear layer at the top of the tube containing neutrophils was collected. Cells were pelleted and treated with ACK lysing buffer (Quality Biological, Gaithersburg, MD, USA) for 5 min at 37° C., washed with R10 and counted. Neutrophils were stained with CFSE provided by the kit and following manufacturer instructions. The apoptosis of neutrophils was induced by treatment with Staurosporine Apoptosis inducer provided by the kit. Briefly, isolated cells were resuspended in R10 containing Staurosporine diluted 1:1000 and incubated at 37° C. for 3 hours. At the end of the incubation cells were washed twice with R10 and used for the efferocytosis assay. Subsequently, effector and apoptotic target cells were cultured alone (as controls) or cocultured at a ratio of one effector CD14^+ cell and three target apoptotic neutrophils. Cells were incubated at 37° C. for 12 hours. At the end of the coculture, cells were washed with PBS, fixed with 1% paraformaldehyde in PBS and acquired on a FACSYMPHONY™ A5 and examined using FACSDIVA™ software (BD Biosciences) by acquiring all stained cells. Data were further analyzed using FlowJo v10.1 (Treestar, Inc., Ashland, OR). The frequency of efferocytotic CD14^+ cells was determined as the frequency of double-positive cells for CYTOTELL™ Blue and CFSE on the CYTOTELL™ Blue positive monocytes.
Efferocytosis assay using SAMT-247 and gp120 pooled peptides. Efferocytosis was done as described above with the exception that SAMT-247 and/or gp120 pooled peptides were added to the co-culture for 12 hours. SAMT-247 induced Efferocytosis was measured by subtracting Efferocytosis with no SAMT-247 treated effector cells from Efferocytosis with SAMT-247 treated effector cells.

In a further assay the test system is CD14^+ monocytes. As to the kind of experiment: Zinc chelation: macaque blood monocytes, SAMT-247 and/or gp120 peptides with or without TPEN. Type of assay: cell-based. As to the method:
Zinc chelation: The frequencies and cytokine levels of NK cells, monocytes and T cells were measured in macaque blood. Cryopreserved PBMCs were thawed and cultured in R10 in the presence/or absence of SAMT-247 and/or gp120 peptides for 12 hours. Cells were incubated with or without Zinc chelator TPEN (cat. #P4413-100 MG, 5 μM) for 12 h. Subsequently, cells were stained for live cells with Live/Dead Blue dye (cat. #L34962, 0.5 μl) from Thermofisher; followed by surface staining with the following: Alexa 700 anti-CD3 (SP34-2; cat. #557917, 5 μl), BV711 anti-CD4 (L200; cat. #563913, 5 μl), BB700 anti-CD8 (RPA-T8; cat. #566452, 5 μl), BUV737 anti-CD20 (2H7; cat. #612848, 5 μl), PE anti-CD45 (D058-1283; cat. #552833, 5 μl), BV786 anti-CCR5 (3A9; cat. #565001, 5 μl), BV496 anti-CD16 (3G8; cat. #612944, 5 μl), BUV661 anti-HLA-DR (G46-6; cat. #612980, 5 μl), BUV805 anti-CD14 (M5E2; cat. #565779, 5 μl) from BD Biosciences; APC-H7 anti-CD11b (ICRF44; cat. #47-0118-42, 5 μl), PE-Cy5 anti-CD95 (ICRF44; cat. #15-0959-42, 5 μl) from eBioscience; APC anti-α4β7, provided by the NIH Nonhuman Primate Reagent Resource (R24 OD010976, and NIAID contract HHSN272201300031C); BV605 anti-CCR6 (G034E3; cat. #353420, 5 μl), BV650 anti-CXCR3 (G025H7; cat. #353730, 5 μl), from Biolegend and PE-Cy7 anti-NKG2A (Z199; cat. #B10246, 5 μl) from Beckman coulter for 30 minutes at room temperature. This was followed by permeabilization with a FOX3-transcription buffer set (cat. #00-5523-00) from eBioscience according to the manufacture's recommendation and subsequently intracellular staining with the following: BV750 anti-TNF-α (MAB11; cat. #566359, 5 μl), BUV395 anti-IFN-γ (B27; cat. #563563, 5 μl), BV510 anti-GranB (GB11; cat. #563388, 5 μl), BV421 anti-IL-10 (JES3-9D7; cat. #564053, 5 μl), PE-CF594 anti-Ki67 (B56; cat. #567120, 5 μl) from BD Biosciences and FITC anti-Perforin (pf-344; cat. #3465-7, 5 μl) from MABTECH for 30 minutes at room temperature. Flow cytometry acquisitions were performed on a FACSYMPHONY™ A5 and examined using FACSDIVA™ software (BD Biosciences).

The next assay concerns SIVmac251. Particulars: cited from earlier work.
Where [1] appears, read: CD14^+ cells collected pre and two weeks after last immunization.
Where [2] appears, read: sorted monocytes from PBMCs stimulated with gp120 peptides ± SAMT-247.

Each structure is given as a SMILES string. A value given as a limit tells only on which side of the number the result lay.

`CC(=O)Sc1ccccc1C(=O)NCCC(N)=O` [SAMT-247]: in the assay with CD14^+ cells (setting [1]), the “per-cell amount of engulfed apoptotic cells (MFI)” value is given as “augmented” and the “percentage of CD14^+ cells engulfing apoptotic cells” value is given as “augmented”. The Function result with CD14^+ cells (Monocytes unstimulated or +gp120 peptides) is listed as “>Efferocytosis”. Moreover, in the assay on CD14^+ cells (setting [2]), the “per-cell amount of cells engulfed (MFI)” value is reported as “reconstituted” and the “percentage of CD14^+ cells engulfing apoptotic neutrophils” value is on record as “reconstituted”. In addition, the Cytokine result in the assay with CD14^+ monocytes (Monocytes unstimulated or +gp120 peptides, * Zinc dependence) is given as “>IL-10 *”. For the same compound, the “IL-10 expression in CD14^+ monocytes” value with CD14^+ monocytes (SAMT-247 alone or together with gp120 peptides) is on record as “increased”. In the assay on SIVmac251 (SAMT-247 alone 3 hours prior to each challenge, animals mock immunized with empty Ad vector and alum (Helmold Hait et al. 2020)), the “effect in the SIVmac251 model” value is reported as “protective effect”. Also, the “risk of SIVmac251 acquisition” value with SIVmac251 (gel given four hours before challenge exposure (Helmold Hait et al. 2020)) is on record as “unable to decrease”.
